Measurements from patent US11246929B2, “Combination of a protein kinase inhibitor and an additional chemotherapeutic agent” (Merck Patent GmbH, priority 2016, dated 2022).

How the values were obtained:
[1] = system: myeloid and lymphoid cells; test: Hematology study, blood cell counts in immunocompetent mice; assay type: in vivo, mouse; details: addition of Compound 1 to etoposide/cisplatin
From the text: For efficacy xenograft study 1014-1-58/BKU00105 female CD1 nu/nu mice [internal Batch ID 04108; Charles River Laboratories, Sulzfeld, Germany], aged 6-8 weeks, were used. For the hematology study 1015-1-3/BKU00106 immunocompetent female CD1 mice [internal Batch ID1406; Janvier Labs, Genest-Saint-Isle, France], aged 12 weeks were used. The mice were acclimatized to the housing conditions for 1 week. They were kept in groups of 10 in polysulfone cages Type III (42.5×26.6×15.5 cm; Techniplast, Hohenpeissenberg). Bedding consisted of aspen chips (E. Becker, Castrop-Rauxel). Room temperature was 24+/−2° C. and relative humidity was 50+/−10% at 15 air changes per hour. Drinking water (provided ad libitum) was supplemented with 1 mg/mL Chlorine and was adjusted to a pH of 6.5 with HCl. […]
The hematology data were evaluated by RM-ANOVA and Bonferroni multiple comparisons post test comparing the blood cell counts of the respective combination groups to the blood cell counts of the SoC only treatment group.
In parallel with the antitumor effect of the etoposide/cisplatin/Compound 1 combination, the effect on myeloid and lymphoid cells was investigated in immunocompetent mice (refer to ONC1015-1-3AZ). […] Blood cell count was determined under treatment (days 5 and 11) and during recovery (days 18 and 24).

DNA-PK (p-Ser2056) = biological target: T1, DNA-PK (p-Ser2056) (Homo sapiens, UniProt P78527); test: IR-induced DNA-PK phosphorylation in tumor tissue, MSD assay, WM164 xenograft; assay type: in vivo
T1 construct: from tissue; host or cells: human tumor xenografts (FaDu, HCT116, WM164) grown in mice
From the text: Following the induction of DSB by radiation therapy or other DNA damaging agents, the catalytic subunit of DNA-PK (DNA-PKc) is autophosphorylated at several serine and threonine residues. Ser2056 is one of the most prominent and best studied autophosphorylation sites. Because Ser2056 phosphorylation (p-Ser2056) correlated well with DNA-PK activation state it was chosen as the pharmacodynamics (PD) biomarker. Two different assay formats were established to measure p-Ser2056 in tumor tissue: ELISA and MSD format. In order to detect sequence reliable signal, IR was used at 50 Gy for the ELISA assay and 10 Gy for the more sensitive MSD assay.

FaDu xenograft = assay type: in vivo
From the text: The standard radiotherapy regimen used in the clinic is a 6-week fractionated treatment schedule (5 fractions of 2 Gy IR per week—60 Gy total).

HCT15 = test: cells; details: Homo sapiens, HCT-15, read-out: GI50 of etoposide (±Compound 1)
Method: Cell growth and treatment were performed in 96-well microtitre plates CELLSTAR® (Greiner Bio-One, Germany). Cells harvested from exponential phase cultures by trypsinization or by splitting (in the case of cells growing in suspension) were plated in 90 μl of media at optimal seeding densities. The optimal seeding density for each cell line was determined to ensure exponential growth for the duration of the experiment. All cells growing without anticancer agents were sub-confluent by the end of the treatment, as determined by visual inspection.
90 μl of cells, after a 48-hour pre-growth period, were treated by mixing with 10 μl of the compound-containing media (resulting in a final DMSO concentration of 0.1%). The cells were allowed to grow at 37° C. for 72 (or 120) hours.
Cells were fixed to the surface by addition of 10% TCA (for adherent growing cells) or 50% TCA (for semi-adherent growing cell or cells growing in suspension). After an hour of incubation at 4° C. plates were washed twice with 200 μl of deionized water and dried. Cells were then stained with 100 μl of 0.04% w/v SRB. […]
Using these measurements, cellular responses can be calculated for incomplete inhibition of cell growth (GI), complete inhibition of cell growth (TGI) and net loss of cells (LC) due to compound activity. […] TGI was calculated from Ti=Tz. […] It was calculated as 100×[(Ti−Tz)/Tz]=−50.

MDAMB231 = test: SRB growth inhibition, 93 cell lines panel; assay type: cell-based; details: Homo sapiens, MDA-MB-231; MDAMB231, breast; read-out: GI50 of etoposide (±Compound 1)
Method: (§1) 90 μl of cells, after a 48-hour pre-growth period, were treated by mixing with 10 μl of the compound-containing media (resulting in a final DMSO concentration of 0.1%).
(§2) This is the drug concentration causing a 50% reduction compared to the net protein increase in control cells during the drug incubation period. In other words, G150 is IC50 corrected for time zero. […] TGI was calculated from Ti=Tz. […] It was calculated as 100×[(Ti−Tz)/Tz]=−50.

JEG3 = test: SRB growth inhibition, 93 cell lines panel; assay type: cell-based; details: Homo sapiens, JEG-3; JEG3, placenta; read-out: GI50 of etoposide (±Compound 1)
Method: as §1, §2

SKMEL28 = test: SRB growth inhibition, 93 cell lines panel; assay type: cell-based; details: Homo sapiens, SK-MEL-28; SKMEL28, skin; read-out: GI50 of etoposide (±Compound 1)
Method: as §1, §2

EFO21 = test: SRB growth inhibition, 93 cell lines panel; assay type: cell-based; details: Homo sapiens, EFO-21; EFO21, ovary; read-out: GI50 of etoposide (±Compound 1)
Method: as §1, §2

NCIH292 = test: SRB growth inhibition, 93 cell lines panel; assay type: cell-based; details: Homo sapiens, NCI-H292; NCIH292, lung; read-out: GI50 of etoposide (±Compound 1)
Method: as §1, §2

A673 = test: SRB growth inhibition, 93 cell lines panel; assay type: cell-based; details: Homo sapiens; A673, muscle; read-out: GI50 of etoposide (±Compound 1)
Method: as §1, §2

ACHN = test: SRB growth inhibition, 93 cell lines panel; assay type: cell-based; details: Homo sapiens, kidney, read-out: GI50 of etoposide (±Compound 1)
Method: as §1, §2

15O31 = test: SRB growth inhibition, 93 cell lines panel; assay type: cell-based; details: 15O31, kidney; read-out: GI50 of etoposide (±Compound 1)
Method: as §1, §2

NCIH82 = test: SRB growth inhibition, 93 cell lines panel; assay type: cell-based; details: Homo sapiens, NCI-H82; NCIH82, lung; read-out: GI50 of etoposide (±Compound 1)
Method: as §1, §2

PC3 = test: SRB growth inhibition, 93 cell lines panel; assay type: cell-based; details: Homo sapiens, PC-3; PC3, prostate; read-out: GI50 of etoposide (±Compound 1)
Method: as §1, §2

A431 = test: SRB growth inhibition, 93 cell lines panel; assay type: cell-based; details: Homo sapiens, A-431; A431, skin; read-out: GI50 of etoposide (±Compound 1)
Method: as §1, §2

EJ28 = test: SRB growth inhibition, 93 cell lines panel; assay type: cell-based; details: Homo sapiens, EJ-28; EJ28, bladder; read-out: GI50 of etoposide (±Compound 1)
Method: as §1, §2

GRANTA-519 = test: SRB growth inhibition, 93 cell lines panel; assay type: cell-based; details: Homo sapiens; GRANTA-519, hematological; read-out: GI50 of etoposide (±Compound 1)
Method: as §1, §2

With `COc1ccc([C@@H](O)c2cc(-c3ncnc4cc(N5CCOCC5)ccc34)c(F)cc2Cl)nn1` [Compound 1, (S)-[2-chloro-4-fluoro-5-(7-morpholin-4-yl-quinazolin-4-yl)-phenyl]-(6-methoxy-pyridazin-3-yl)-methanol] the “blood cell reduction and recovery” value [1] was “did not significantly affect blood cell reduction nor the recovery phase”, the “inhibition of IR-induced DNA-PK phosphorylation (Ser2056)” value (DNA-PK (p-Ser2056); WM164, MSD assay, IR 10 Gy) was “Dose-dependent inhibition” and the “DNA-PK autophosphorylation in tumor tissue” value (DNA-PK (p-Ser2056); WM164, 25 mg/kg 10 minutes prior to 10 Gy IR) was “inhibition of DNA-PK autophosphorylation”. For the same compound, the “complete tumor regression, % of the animals” value (FaDu xenograft; 6 weeks IR (60 Gy total) + 10 mg/kg po, no regrowth during study period (113 days)) was 44%, the tumor regression (FaDu xenograft; 6 weeks IR (60 Gy total) + 25 and 50 mg/kg po) was “regressed in all 10 animals” and the “tumor growth in comparison to IR alone” value (FaDu xenograft; 6 weeks IR (60 Gy total) + Compound 1 po) was “strong inhibition of tumor growth”. The tolerability (FaDu xenograft; 6 weeks IR + Compound 1) was “generally well tolerated”.
`COc1cc([C@@H]2c3cc4c(cc3[C@@H](O[C@@H]3O[C@@H]5CO[C@@H](C)O[C@H]5[C@H](O)[C@H]3O)[C@H]3COC(=O)[C@H]23)OCO4)cc(OC)c1O` [Etoposide] showed a GI50 (HCT15) of 1470 nM, a GI50 (MDAMB231) of 1940 nM and a GI50 (JEG3) of 41 nM. The GI50 (SKMEL28) was 1890 nM, the GI50 (EFO21) was 8220 nM and the GI50 (NCIH292) was 1650 nM. For the same compound, the GI50 (A673) was 1080 nM, the GI50 (ACHN) was 714 nM and the GI50 (15O31) was 7910 nM. It also gave a GI50 (NCIH82) of 1150 nM, a GI50 (PC3) of 5240 nM and a GI50 (A431) of 1520 nM. The GI50 (EJ28) was 440 nM and the GI50 (GRANTA-519) was 247 nM.
